Earlier results on two molecules are cited in patent US20160339123A1, “POLYBUTYLACRYLATE-BASED NANOCOMPOSITE PHOTOACOUSTIC IMAGING AGENT AND A PREPARATION METHOD THEREOF” (Wenzhou Institute of Biomaterials and Engineering, priority 2015, published 2016).

For the data set the following is noted: near infrared region.

Consider `CN(C)c1ccc2nc3ccc(=[N+](C)C)cc-3sc2c1` [methylene blue], for which the absorption peak is reported as around 664 nm. As to `CC1(C)C(/C=C/C=C/C=C/C=C2\N(CCCCS(=O)(=O)O)c3ccc4ccccc4c3C2(C)C)=[N+](CCCCS(=O)(=O)[O-])c2ccc3ccccc3c21` [indocyanine green], the absorption peak is listed as around 780 nm.
